Patent US6218431A, “Substituted biphenyls” (Bayer Corporation, priority 1997, dated 2001)

Target: T1, glucagon receptor (Homo sapiens, UniProt P47871)
T1 construct: expressed in transfected cells; host or cells: Chinese Hamster Ovary cells (CHO-HGR), membranes
Experiment: glucagon receptor binding assay (125I-glucagon, CHO-HGR membranes)
Settings: 20 μM; reported where 20 μM did not reduce glucagon binding by 50%
Protocol: The affinity for the glucagon receptor of compounds of the present invention is determined by the glucagon receptor binding assay. Membranes were prepared from Chinese Hamster Ovary cells expressing the glucagon receptor (CHO-HGR) by scraping the cells into hypotonic lysis buffer (10 mM Tris, pH 7.4, 2 mM EDTA, 5 mM MgCl2 and 1 mM PMSF) and subjecting the material to Polytron homogenization. Nuclei were removed by a 15-min 800×g centrifugation step conducted at 4° C. Membranes containing the receptor were collected by centrifugation at 15,000×gfor 15 min at 4° C. The membranes were washed once in lysis buffer and suspended in 0.25 M sucrose, 10 mM Tris, 5 mM EDTA, pH 7.4. The membranes were used in ligand binding studies as reported (Yoo-Warren, H., Willse, A. G., Hancock, N., Hull, J., McCaleb, M., and Livingston, J. Regulation of Rat Glucagon Receptor Expression. Biochem. Biophysical Res. Commun. 1994, 205, 347-353). In brief, 10 ug of membrane protein was incubated in 130 μl of binding buffer that consisted of 20 mM Tris, […], 1 mM EDTA, 1 mg/ml BSA, and 1 mg/ml bacitracin. The membrane suspension was placed in each well of a 96-well filtration plate (glass fiber type C, Millipore). […] Following the addition of test compound, 50 μl of ^125 I-glucagon (9 fmol) (NEN) was added to each well. Control wells contained membranes, 0.5% DMSO (solvent for test compounds), radiolabeled glucagon without and with excess native glucagon (1 μM) to establish nonspecific binding. The plates were incubated for 60 min at room temperature, and then filtered on a Mllipore vacuum apparatus. Following a wash step with ice-cold PBS/0.1% BSA, the filters were punched into test tubes, and the membrane bound radioactivity was determined.

T1 sequence (P47871 26-477): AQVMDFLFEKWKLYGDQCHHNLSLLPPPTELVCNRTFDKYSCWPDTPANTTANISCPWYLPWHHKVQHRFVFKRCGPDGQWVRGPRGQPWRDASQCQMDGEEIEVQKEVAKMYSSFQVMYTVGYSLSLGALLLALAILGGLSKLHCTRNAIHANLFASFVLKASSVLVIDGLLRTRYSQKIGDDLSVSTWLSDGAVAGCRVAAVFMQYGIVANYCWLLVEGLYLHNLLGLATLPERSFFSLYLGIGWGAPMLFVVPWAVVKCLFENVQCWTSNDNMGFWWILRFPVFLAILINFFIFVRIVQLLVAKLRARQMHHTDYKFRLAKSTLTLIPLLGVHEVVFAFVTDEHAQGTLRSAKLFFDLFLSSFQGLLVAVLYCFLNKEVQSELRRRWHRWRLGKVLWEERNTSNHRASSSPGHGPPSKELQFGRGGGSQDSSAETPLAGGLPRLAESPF

Row | SMILES | inhibition at 20 µM [%]
1 | CCCC=Cc1c(CC)nc(CC)c(CO)c1-c1ccccc1 [Example 6] | 34.2
2 | CCc1nc(CC)c(CO)c(-c2ccccc2)c1CC [Example 9] | 16.6
3 | CC(C)c1nc(C(C)C)c(CN2CCC(N3CCCCC3)CC2)c(-c2ccc(F)cc2)c1CO [Example 74, 2,6-Diisopropyl-3-hydroxymethyl-4-(4-fluorophenyl)-5-[(4-piperidinopiperidin-1-yl)methyl]pyridine] | 27.1

Continued, values first:

Row | inhibition at 20 µM [%] | SMILES
4 | 39.6 | CCCCC(OC)c1c(C(C)C)nc(C(C)C)c(CO)c1-c1ccc(F)cc1 (racemic) [Example 100, (±)-2,6-Diisopropyl-3-hydroxymethyl-4-(4-fluorophenyl)-5-(1-methoxy-pentyl)pyridine]
5 | 45.5 | CCCC=Cc1c(C(C)C)nc(C(C)C)c(CO)c1-c1cccc(F)c1 [Example 127, 2,6-Diisopropyl-3-hydroxymethyl-4-(3-fluorophenyl)-5-(pent-1-enyl)-pyridine]
6 | 24 | CCCCCc1c(C(C)C)nc(C(C)C)c(CO)c1-c1ccc(O)cc1 [Example 161, 2,6-Diisopropyl-3-hydroxymethyl-4-(4-hydroxyphenyl)-5-pentylpyridine]
7 | 43.2 | CCC(OC)c1c(C(C)C)nc(C(C)C)c(CO)c1-c1ccc(F)cc1 (racemic) [Example 99, (±)-2,6-Diisopropyl-3-hydroxymethyl-4-(4-fluorophenyl)-5-(1-methoxy-5-propyl)pyridine]
8 | 45.5 | CCCC=Cc1c(C(C)C)nc(C(C)C)c(CO)c1-c1cccc(OC)c1 [Example 170, 2,6-Diisopropyl-3-hydroxymethyl-4-(3-methoxyphenyl)-5-(pent-1-enyl)pyridine]
9 | 45.1 | CCCCCc1c(C(C)C)nc(C(C)C)c(C(O)CC)c1-c1ccc(F)cc1 (racemic) [Example 117]
10 | 28.3 | CC(C)c1nc(C(C)C)c(C(C)O)c(-c2ccc(F)cc2)c1CO (racemic) [Example 93, (±)-2,6-Diisopropyl-3-hydroxymethyl-4-(4-fluorophenyl-5-(1-hydroxy-ethyl)pyridine]
11 | 26.2 | CCCCCc1c(C(C)C)nc(C(C)C)c(CN)c1-c1ccc(F)cc1 [Example 121, 2,6-Diisopropyl-3-aminomethyl-4-(4fluorophenyl)-5-pentylpyridine]
12 | 37 | CCCCCc1c(C(C)C)nc(C(C)C)c(CNC)c1-c1ccc(F)cc1 [Example 120, 2,6-Diisopropyl-3-methylaminomethyl-4-(4-fluorophenyl)-5-pentyl-pyridine]

Same assay, conditions: 125I-glucagon; 60 min at room temperature; read-out: IC50

Row | SMILES | IC50 [nM]
13 | CC(C)c1nc(C(C)C)c(CSc2c(F)c(F)cc(F)c2F)c(-c2ccc(F)cc2)c1CO [Example 53, 2,6-Diisopropyl-3-hydroxymethyl-4-(4-fluorophenyl)-5-[(2,3,5,6-tetra-fluorophenyl)thio]methylpyridine] | 4900
14 | Cc1ccccc1CCc1c(C(C)C)nc(C(C)C)c(CO)c1-c1ccc(F)cc1 [Example 43, 2,6-Diisopropyl-3-hydroxymethyl-4-(4-fluorophenyl)-5-[2-(2-methyl-phenyl)ethyl]pyridine] | 1800
15 | CCCCCc1c(C(C)C)nc(C(C)C)c(CO)c1-c1ccccc1F [Example 138, 2,6-Diisopropyl-3-hydroxymethyl-4-(2-fluorophenyl)-5-pentylpyridine] | 9000
16 | C=Cc1c(C(C)C)nc(C(C)C)c(CO)c1-c1ccc(F)cc1 [Example 22, 2,6Diisopropyl-3-hydroxymethyl-4-(4-fluorophenyl)-5-ethenylpyridine] | 1100
17 | CC(C)c1nc(C(C)C)c(CCCC2OCCO2)c(-c2ccc(F)cc2)c1CO [Example 46] | 9000
18 | CCCCCc1c(C(C)C)nc(C(C)C)c(CO)c1-c1ccc(F)c(F)c1 [Example 159, 2,6-Diisopropyl-3-hydroxymethyl-4-(3,4-difluorophenyl)-5-pentyl-pyridine] | 1100
19 | Cc1cccc(CCc2c(C(C)C)nc(C(C)C)c(CO)c2-c2ccc(F)cc2)c1 [Example 44, 2,6-Diisopropyl-3-hydroxymethyl-4-(4-fluorophenyl)-5-[2-(3-methyl-phenyl)ethyl]pyridine] | 1000
20 | CC(C)CC=Cc1c(C(C)C)nc(C(C)C)c(CO)c1-c1ccc(F)cc1 [Example 28, 2,6Diisopropyl-3-hydroxymethyl-4-(4-fluorophenyl)-5-(4-methyl-1-pentenyl)pyridine] | 1000
21 | CC(C)C=Cc1c(C(C)C)nc(C(C)C)c(CO)c1-c1ccc(F)cc1 [Example 27, 2,6-Diisopropyl-3-hydroxymethyl-4-(4-fluorophenyl)-5-(3-methyl-1-butenyl)pyridine] | 20000
22 | CC(C)c1nc(C(C)C)c(CSCc2ccccc2)c(-c2ccc(F)cc2)c1CO [Example 64] | 1100
23 | CCCCCc1c(C(C)C)nc(C(C)C)c(CO)c1-c1ccc(F)cc1 [Example 1] | 600
24 | CCCCCc1c(C(C)C)nc(C(C)C)c(CO)c1-c1cccc(O)c1 [Example 153, 2,6-Diisopropyl-3-hydroxymethyl-4-(3-hydroxyphenyl)-5-pentylpyridine] | 6000
25 | CC(C)c1nc(C(C)C)c(CSc2ccc3ccccc3c2)c(-c2ccc(F)cc2)c1CO [Example 52, 2,6Diisopropyl-3hydroxymethyl-4-(4-fluorophenyl)-5-(2-naphthyl-thio)methlpyridine] | 20000
26 | CC(C)c1nc(C(C)C)c(CCCCc2ccccc2)c(-c2ccc(F)cc2)c1CO [Example 39] | 1300
27 | CCC=Cc1c(C(C)C)nc(C(C)C)c(CO)c1-c1ccccc1 [Example 13] | 3000
28 | CC(C)CCCc1c(C(C)C)nc(C(C)C)c(CO)c1-c1ccc(F)cc1 [Example 30, 2,6-Diisopropyl-3-hydroxymethyl-4-(4-fluorophenyl)-5-(4-methylpentyl)pyridine] | 900

Results, then the compound that gave them:

Row | IC50 [nM] | SMILES
29 | 13000 | CCCCCc1c(C(C)C)nc(C(C)C)c(C(O)C(F)(F)F)c1-c1ccc(F)cc1 (racemic) [Example 118, (±)-2,6-Diisopropyl-3-(2,2,2-trifluoro-1-hydroxy)ethyl-4-(4-fluoro-phenyl)-5-pentylpyridine]
30 | 11 | CCc1c(C(C)C)cc(C(C)C)c(C(C)O)c1-c1ccc(F)cc1O (centres unmarked) [Example 246, 3,5-Diisopropyl-2-(1-hydroxyethyl)-6-ethyl-4'-fluoro-2'-hydroxy-1,1'-biphenyl]
31 | 500 | CC(C)c1nc2c(c(-c3ccc(F)cc3)c1C(C)O)CCCC2(C)C (centres unmarked) [Example 231, 2-Isopropyl-3-(1-hydroxyethyl)-4-(4-fluorophenyl)-5,6,7,8-tetrahydro-8,8-dimethylquinoline]
32 | 8000 | CC(C)c1nc2c(c(-c3ccc(F)cc3)c1CO)CCC2(C)C [Example 234, 2-Isopropyl-3-hydroxymethyl-4-(4-fluorophenyl)-7,7-dimethyl-5H-cyclopenta[b]pyridine]
33 | 4500 | CCCC=Cc1c(C(C)C)nc(C(C)C)c(CO)c1-c1ccc(F)cc1F [Example 150, 2,6-Diisopropyl-3-hydroxymethyl-4-(2,4-difluorophenyl)-5-(pent-1-enyl)pyridine]
34 | 10500 | CCCCCc1c(C(C)C)nc(C(C)C)c(CO)c1-c1ccoc1 [Example 188, 2,6-Diisopropyl-3-hydroxymethyl-4-(3-furyl)-5-pentylpyridine]
35 | 3100 | CC(C)c1nc2c(c(-c3ccc(F)cc3)c1C(C)O)CCC2(C)C (centres unmarked) [Example 235, 2-Isopropyl-3-(1-hydroxyethyl)-4-(4-fluorophenyl)-7,7-dimethyl-5H-cyclopenta[b]pyridine]
36 | 300 | CCCCCc1c(C(C)C)cc(C(C)C)c(CO)c1-c1ccc(F)cc1 [Example 190, 3,5-Diisopropyl-2-hydroxymethyl-6-pentyl-4'-fluoro-1,1'-biphenyl]
37 | 130 | CCCCCc1c(C(C)C)cc(C(C)C)c(C(C)O)c1-c1ccc(F)cc1 (centres unmarked) [Example 191, 3,5-Diisopropyl-2-(1-hydroxyethyl)-6-pentyl-4'-fluoro-1,1'-biphenyl]
38 | 900 | CC(C)c1nc2c(c(-c3ccc(F)cc3)c1CO)CCCC2(C)C [Example 230, 2-Isopropyl-3-hydroxymethyl-4-(4-fluorophenyl)-5,6,7,8-tetrahydro-8,8-dimethylquinoline]
39 | 50 | CCCc1c(C(C)C)nc(C(C)C)c(CO)c1-c1ccc(F)cc1O (single isomer, unassigned) [Example 239-E2, 2,6-Diisopropyl-3-(1-hydroxymethyl)-4-(4-fluoro-2-hydroxyphenyl)-5-propylpyridine]
40 | 2500 | CCCc1c(C(C)C)nc(C(C)C)c(CO)c1-c1ccc(F)cc1O (single isomer, unassigned) [Example 239-E1, 2,6-Diisopropyl-3-(1-hydroxymethyl)-4-(4-fluoro-2-hydroxyphenyl)-5-propylpyridine]
41 | 18000 | Cc1c(F)c(F)c(SCc2c(C(C)C)cc(C(C)C)c(CO)c2-c2ccc(F)cc2)c(F)c1F [Example 286]
